The results in this text go back to patent US11332459B2 (TEIJIN PHARMA LIMITED, priority 2017, dated 2022).

In this experiment the target is T1, human TRPC6 (Homo sapiens, UniProt Q9Y210).
T1 construct: expressed in transfected cells
T1 sequence (Q9Y210 1-931): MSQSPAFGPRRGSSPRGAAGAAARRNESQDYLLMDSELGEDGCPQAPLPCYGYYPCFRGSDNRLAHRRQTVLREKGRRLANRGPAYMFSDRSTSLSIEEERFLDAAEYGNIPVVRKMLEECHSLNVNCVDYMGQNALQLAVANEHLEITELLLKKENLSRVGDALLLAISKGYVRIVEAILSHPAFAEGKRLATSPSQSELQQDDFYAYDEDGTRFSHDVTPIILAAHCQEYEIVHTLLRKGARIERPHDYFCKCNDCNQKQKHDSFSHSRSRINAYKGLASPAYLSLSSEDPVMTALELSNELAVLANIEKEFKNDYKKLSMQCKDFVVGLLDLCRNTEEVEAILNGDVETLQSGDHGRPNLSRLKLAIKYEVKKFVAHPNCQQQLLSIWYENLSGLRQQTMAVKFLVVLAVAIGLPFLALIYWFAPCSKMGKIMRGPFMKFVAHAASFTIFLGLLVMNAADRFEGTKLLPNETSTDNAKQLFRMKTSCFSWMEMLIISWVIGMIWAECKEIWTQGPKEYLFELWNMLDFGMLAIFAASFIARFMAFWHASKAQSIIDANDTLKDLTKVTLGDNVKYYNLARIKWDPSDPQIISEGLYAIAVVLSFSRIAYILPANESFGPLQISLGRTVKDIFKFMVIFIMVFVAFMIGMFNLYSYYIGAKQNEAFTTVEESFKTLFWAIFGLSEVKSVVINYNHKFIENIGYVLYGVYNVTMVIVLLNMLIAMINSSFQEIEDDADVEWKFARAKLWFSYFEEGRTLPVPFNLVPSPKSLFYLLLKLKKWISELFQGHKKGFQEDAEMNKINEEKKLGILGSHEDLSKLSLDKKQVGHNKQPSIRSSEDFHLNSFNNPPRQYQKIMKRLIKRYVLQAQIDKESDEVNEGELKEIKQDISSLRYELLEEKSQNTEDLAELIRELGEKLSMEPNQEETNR
The experiment in a line: TRPC6 calcium flux assay (FLIPR, OAG-stimulated calcium influx). It counts as cell-based. The note with it: HEK293 cells stably transfected with human TRPC6, read-out: hTRPC6 Potency. The procedure, abridged: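 IC50 derived by plotting background-corrected peak fluorescence (180 s window, normalized to OAG-triggered signal vs buffer) against dose. Stable human TRPC6 HEK293 line was dye-loaded, exposed to compound 25 min, then challenged with 50 uM final OAG in 2 mM Ca2+ HEPES buffer pH 7.2, 0.5% DMSO.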

For the molecule `CN1CC[C@H](n2c(N3CC[C@@H](F)[C@H](N)C3)nc3cc(F)c(F)cc32)C1=O` [Example 245, (S)-3-(2-((3R,4R)-3-amino-4-fluoropiperidin-1-yl)-5,6-difluoro-1H-benzo[d]imidazol-1-yl)-1-methylpyrrolidin-2-one], the IC50 is 0.0625 µM. Turning to `CN1CC[C@@H](n2c(N3CC[C@@H](F)[C@H](N)C3)nc3cc(F)c(F)cc32)C1=O` [Example 246, (R)-3-(2-((3R,4R)-3-amino-4-fluoropiperidin-1-yl)-5,6-difluoro-1H-benzo[d]imidazol-1-yl)-1-methylpyrrolidin-2-one], the IC50 came to 2.92 µM. For `N[C@@H]1CN(c2nc3cc(F)c(F)cc3n2[C@H]2CCN(c3ccc(Cl)cc3)C2=O)CC[C@H]1F` [Example 247, (S)-3-(2-((3R,4R)-3-amino-4-fluoropiperidin-1-yl)-5,6-difluoro-1H-benzo[d]imidazol-1-yl)-1-(4-chlorophenyl)pyrrolidin-2-one], the IC50 was 0.0754 µM. For the molecule `N[C@@H]1CN(c2nc3cc(F)c(F)cc3n2[C@@H]2CCN(c3ccc(Cl)cc3)C2=O)CC[C@H]1F` [Example 248, (R)-3-(2-((3R,4R)-3-amino-4-fluoropiperidin-1-yl)-5,6-difluoro-1H-benzo[d]imidazol-1-yl)-1-(4-chlorophenyl)pyrrolidin-2-one], the IC50 came to 0.00507 µM. For `N#Cc1ccc2nc(N3CC[C@@H](F)[C@H](N)C3)n(Cc3cnc(C#N)cn3)c2c1` [Example 249, 2-((3R,4R)-3-amino-4-fluoro-1-piperidinyl)-1-((5-cyano-2-pyrazinyl)methyl)-1H-benzimidazole-6-carbonitrile], the IC50 turned out to be 0.00765 µM. `N#Cc1ccc2c(c1)nc(N1CC[C@@H](F)[C@H](N)C1)n2Cc1cnc(C#N)cn1` [Example 250, 2-((3R,4R)-3-amino-4-fluoro-1-piperidinyl)-1-((5-cyano-2-pyrazinyl)methyl)-1H-benzimidazole-5-carbonitrile]: the IC50 stood at 0.0785 µM. Take `N#Cc1cnc(Cn2c(N3CC[C@@H](F)[C@H](N)C3)nc3c(F)cc(F)cc32)cn1` [Example 251, 5-((2-((3R,4R)-3-amino-4-fluoro-1-piperidinyl)-4,6-difluoro-1H-benzimidazol-1-yl)methyl)-2-pyrazinecarbonitrile]: the IC50 came out at 0.0172 µM. `N#Cc1cnc(Cn2c(N3CC[C@@H](F)[C@H](N)C3)nc3cc(F)cc(F)c32)cn1` [Example 252, 5-((2-((3R,4R)-3-amino-4-fluoro-1-piperidinyl)-5,7-difluoro-1H-benzimidazol-1-yl)methyl)-2-pyrazinecarbonitrile]: the IC50 was found to be 0.00876 µM. Take `CN[C@H]1CCCN(c2nc3ccccc3n2Cc2ccc(F)cn2)C1` [Example 253, (3S)-1-(1-((5-fluoro-2-pyridinyl)methyl)-1H-benzimidazol-2-yl)-N-methyl-3-piperidinamine]: the IC50 came out at 0.406 µM.

Consider `CN[C@H]1CCCN(c2nc3ccccc3n2Cc2ccc(Cl)cn2)C1` [Example 254, (3S)-1-(1-((5-chloro-2-pyridinyl)methyl)-1H-benzimidazol-2-yl)-N-methyl-3-piperidinamine], for which the IC50 is 0.0739 µM.

For `CN[C@H]1CCCN(c2nc3ccccc3n2[C@H](C)c2ccc(C#N)cn2)C1` [Example 255, 6-((1R)-1-(2-((3S)-3-(methylamino)-1-piperidinyl)-1H-benzimidazol-1-yl)ethyl)-3-pyridinecarbonitrile], the IC50 amounted to 0.101 µM. The same measure for `CN[C@H]1CCCN(c2nc3ccccc3n2[C@@H](C)c2ccc(C#N)cn2)C1` [Example 256, 6-((1S)-1-(2-((3S)-3-(methylamino)-1-piperidinyl)-1H-benzimidazol-1-yl)ethyl)-3-pyridinecarbonitrile]: 0.0194 µM; for `N[C@@H]1CN(c2nc3cc(F)cc(F)c3n2Cc2ncc(Cl)cn2)CC[C@H]1F` [Example 257, (3R,4R)-1-(1-((5-chloro-2-pyrimidinyl)methyl)-5,7-difluoro-1H-benzimidazol-2-yl)-4-fluoro-3-piperidinamine]: 0.0524 µM; for `N[C@@H]1CN(c2nc3c(F)cc(F)cc3n2Cc2ncc(Cl)cn2)CC[C@H]1F` [Example 258, (3R,4R)-1-(1-((5-chloro-2-pyrimidinyl)methyl)-4,6-difluoro-1H-benzimidazol-2-yl)-4-fluoro-3-piperidinamine]: 0.000288 µM.

For `Cn1ncc2c(Cn3c(N4CC[C@@H](F)[C@H](N)C4)nc4cc(F)c(F)cc43)cccc21` [Example 259, (3R,4R)-1-(5,6-difluoro-1-((1-methyl-1H-indazol-4-yl)methyl)-1H-benzimidazol-2-yl)-4-fluoro-3-piperidinamine], the IC50 was determined as 1.43 µM.

Regarding `N[C@@H]1CN(c2nc3cc(F)c(F)cc3n2Cc2cccc3ncccc23)CC[C@H]1F` [Example 260, (3R,4R)-1-(5,6-difluoro-1-(5-quinolinylmethyl)-1H-benzimidazol-2-yl)-4-fluoro-3-piperidinamine], the IC50 is 0.376 µM. For `C[C@H](c1cccc2cccnc12)n1c(N2CC[C@@H](F)[C@H](N)C2)nc2cc(F)c(F)cc21` [Example 261, (3R,4R)-1-(5,6-difluoro-1-((1R)-1-(8-quinolinyl)ethyl)-1H-benzimidazol-2-yl)-4-fluoro-3-piperidinamine], the IC50 is more than 3.75 µM. Regarding `C[C@@H](c1cccc2cccnc12)n1c(N2CC[C@@H](F)[C@H](N)C2)nc2cc(F)c(F)cc21` [Example 262, (3R,4R)-1-(5,6-difluoro-1-((1S)-1-(8-quinolinyl)ethyl)-1H-benzimidazol-2-yl)-4-fluoro-3-piperidinamine], the IC50 came to 0.28 µM. As for `N[C@@H]1CN(c2nc3cc(F)c(F)cc3n2Cc2cc(-c3cccc(Cl)c3)no2)CC[C@H]1F` [Example 263, (3R,4R)-1-(1-((3-(3-chlorophenyl)-1,2-oxazol-5-yl)methyl)-5,6-difluoro-1H-benzimidazol-2-yl)-4-fluoro-3-piperidinamine], the IC50 stood at 0.765 µM. As for `Cn1ncc2cccc(Cn3c(N4CC[C@@H](F)[C@H](N)C4)nc4cc(F)c(F)cc43)c21` [Example 264, (3R,4R)-1-(5,6-difluoro-1-((1-methyl-1H-indazol-7-yl)methyl)-1H-benzimidazol-2-yl)-4-fluoro-3-piperidinamine], the IC50 was found to be 0.217 µM. Turning to `N[C@@H]1CN(c2nc3cc(F)c(F)cc3n2Cc2c(Cl)cccc2Cl)CC[C@H]1F` [Example 265, (3R,4R)-1-(1-(2,6-dichlorobenzyl)-5,6-difluoro-1H-benzimidazol-2-yl)-4-fluoro-3-piperidinamine], the IC50 stood at 2.86 µM.

Turning to `CN[C@H]1CCCN(c2nc3ccccc3n2CC(=O)N2CCC2)C1` [Example 266, 1-(1-azetidinyl)-2-(2-((3S)-3-(methylamino)-1-piperidinyl)-1H-benzimidazol-1-yl)ethanone], the IC50 turned out to be 15.8 µM.

Turning to `C[C@H](c1ccc(C#N)cn1)n1c(N2CC[C@H]3OCCN[C@@H]3C2)nc2c(F)cc(F)cc21` [Example 267, 6-((1R)-1-(4,6-difluoro-2-((4aR,8aR)-hexahydro-2H-pyrido[4,3-b][1,4]oxazin-6(5H)-yl)-1H-benzimidazol-1-yl)ethyl)-3-pyridinecarbonitrile], the IC50 is more than 50 µM. Take `C[C@H](c1ccc(C#N)cn1)n1c(N2CC[C@@H]3OCCN[C@H]3C2)nc2c(F)cc(F)cc21` [Example 268, 6-((1R)-1-(4,6-difluoro-2-((4aS,8aS)-hexahydro-2H-pyrido[4,3-b][1,4]oxazin-6(5H)-yl)-1H-benzimidazol-1-yl)ethyl)-3-pyridinecarbonitrile]: the IC50 is more than 50 µM. With `C[C@@H](c1ccc(C#N)cn1)n1c(N2CC[C@@H]3OCCN[C@H]3C2)nc2c(F)cc(F)cc21` [Example 269, 6-((1S)-1-(4,6-difluoro-2-((4aS,8aS)-hexahydro-2H-pyrido[4,3-b][1,4]oxazin-6(5H)-yl)-1H-benzimidazol-1-yl)ethyl)-3-pyridinecarbonitrile], the IC50 was determined as 0.00204 µM. The same measure for `C[C@@H](c1ccc(C#N)cn1)n1c(N2CC[C@H]3OCCN[C@@H]3C2)nc2c(F)cc(F)cc21` [Example 270, 6-((1S)-1-(4,6-difluoro-2-((4aR,8aR)-hexahydro-2H-pyrido[4,3-b][1,4]oxazin-6(5H)-yl)-1H-benzimidazol-1-yl)ethyl)-3-pyridinecarbonitrile]: 0.0515 µM; for `C[C@H](c1ccc(C#N)cn1)n1c(N2CC[C@H]3OCCN[C@@H]3C2)nc2cc(F)cc(F)c21` [Example 271, 6-((1R)-1-(5,7-difluoro-2-((4aR,8aR)-hexahydro-2H-pyrido[4,3-b][1,4]oxazin-6(5H)-yl)-1H-benzimidazol-1-yl)ethyl)-3-pyridinecarbonitrile]: 0.158 µM.
